Assays:
Type in all cases: in vivo, human
taste panelists [1] = assay: Sweetness enhancing effect with sucrose, 2AFC sip and spit test; details: control 5% sucrose solution, n=30
Protocol: (§1) The sweetness enhancing effect of Compounds (1), (2), and (3) when used with certain sweeteners (specifically, sucrose or rebaudioside M) was evaluated using a two-alternative forced choice “sip and spit” method (2AFC). The 2AFC test used for compound evaluation was a double-blinded and randomized test where taste panelists (n=30) evaluated a pair of sweetener solutions at a time—one sample contains aqueous sweetener solution plus compound (test sample), while the other contains the aqueous sweetener solution without compound (control). Each test sample was compared against a positive control. For example, if the test sample contained 5% sucrose solution with Compound (1), the positive control contained a 5% sucrose solution (i.e., without Compound (1)). Panelists were instructed not to eat or drink (except water) for at least 1 hour before the test. During the test panelists were instructed to sip each sample, swirl it around their mouth and then expectorate. After tasting each sample in the pair, panelists were instructed to record the sample that is “sweeter” in taste. Panelists cleansed their palates by rinsing with water, eating a cracker and waiting for an interval of about 5 minutes. All samples were tested at ambient temperatures.

taste panelists [2] = assay: Sweetness enhancing effect with rebaudioside M, 2AFC sip and spit test; details: control 100 ppm Reb M solution, n=30
Protocol: as §1

taste panelists [3] = assay: Inherent sweetness, two-alternative forced choice sip and spit (2AFC) vs 1.5% sucrose control; details: control 1.5% sucrose, n=30
Protocol: The inherent sweetness of Compounds (1), (2), and (3) as perceived by human subjects was evaluated using a two-alternative forced choice “sip and spit” method (2AFC). The 2AFC test used for compound evaluation was a double-blinded and randomized test where taste panelists (n=30) evaluated a pair of sweetener solutions at a time—one sample is a 1.5% sucrose control, while the other is an aqueous solution containing a test compound at the indicated concentration. Panelists were instructed not to eat or drink (except water) for at least 1 hour before the test. During the test panelists were instructed to sip each sample, swirl it around their mouth and then expectorate. […] Panelists cleansed their palates by rinsing with water, eating a cracker and waiting for an interval of about 5 minutes. All samples were tested at ambient temperatures.

[4] = compound 20 ppm in 100 ppm Reb M solution
[5] = compound 20 ppm in aqueous solution
[6] = compound 50 ppm in aqueous solution
[7] = compound 80 ppm in aqueous solution

## Cc1cc(O)c2c(c1)OC(=O)CC2c1ccc(O)c(O)c1 (stereo not drawn) [Compound (1), 4-(3,4-dihydroxyphenyl)-5-hydroxy-7-methylchroman-2-one]
Taste panelists [1]; compound 60 ppm in 5% sucrose solution
  panelists who chose Test Sample as sweeter than Control: 21 of 30 panelists
Taste panelists [2]; [4]
  panelists who chose Sample as sweeter than Control: 29 of 30 panelists
Taste panelists [3]; [5]
  panelists who chose Sample as comparable in sweetness to Control: 1 of 30 panelists chose Sample as
Taste panelists [3]; [6]
  panelists who chose Sample as comparable in sweetness to Control: 2 of 30 panelists chose Sample as
Taste panelists [3]; [7]
  panelists who chose Sample as comparable in sweetness to Control: 2 of 30 panelists chose Sample as

## COc1cc(C2CC(=O)Oc3ccc(O)c(C)c32)ccc1O (stereo not drawn) [Compound (2), 6-hydroxy-4-(4-hydroxy-3-methoxyphenyl)-5-methylchroman-2-one]
Taste panelists [1]; compound 40 ppm in 5% sucrose solution
  panelists who chose Sample as sweeter than Control: 29 of 30 panelists
Taste panelists [2]; [4]
  panelists who chose Sample as sweeter than Control: 30 of 30 panelists
Taste panelists [3]; [5]
  panelists who chose Sample as comparable in sweetness to Control: 1 of 30 panelists chose Sample as
Taste panelists [3]; [6]
  panelists who chose Sample as comparable in sweetness to Control: 1 of 30 panelists chose Sample as
Taste panelists [3]; [7]
  panelists who chose Sample as comparable in sweetness to Control: 1 of 30 panelists chose Sample as

## COc1cc(C2CC(=O)Oc3cccc(O)c32)ccc1O (stereo not drawn) [Compound (3), 5-hydroxy-4-(4-hydroxy-3-methoxyphenyl)chroman-2-one]
Taste panelists [1]; compound 20 ppm in 5% sucrose solution
  panelists who chose Sample as sweeter than Control: 28 of 30 panelists
Taste panelists [2]; compound 40 ppm in 100 ppm Reb M solution
  panelists who chose Sample as sweeter than Control: 20 of 30 panelists
Taste panelists [3]; [5]
  panelists who chose Sample as comparable in sweetness to Control: 2 of 30 panelists chose Sample as
Taste panelists [3]; [6]
  panelists who chose Sample as comparable in sweetness to Control: 2 of 30 panelists chose Sample as
Taste panelists [3]; [7]
  panelists who chose Sample as comparable in sweetness to Control: 1 of 30 panelists chose Sample as

Source: patent US20230363424A1, “COMPOUNDS AND METHODS FOR ENHANCING SWEETNESS OF SWEETENERS” (Conagen Inc., priority 2021, published 2023)
